Test results reported in publication PMC11940194, “Synthesis, Antiproliferative Activity, and ADME Profiling of Novel Racemic and Optically Pure Aryl-Substituted Purines and Purine Bioisosteres” (Biomolecules, 2025).

Experiments:
[1] = test system: colorectal carcinoma (HT-29) cells; assay: Antiproliferative MTT assay, HT-29; format: cell-based, human; details: for IC50: Homo sapiens, HT-29, 72 h, 72 h incubation, MTT, mean ± SD; for SI (HT-29): SI = [IC50 HFF]/[IC50 HT-29]
Procedure: (§1) The human ATCC tumor cell lines breast adenocarcinoma (MCF7), colorectal carcinoma (HT-29), pancreatic ductal adenocarcinoma (CFPAC-1), hepatocellular carcinoma (HepG2), and normal skin fibroblasts (HFF) derived from ATCC (American Type Culture Collection) were cultured in Dulbecco’s Modified Eagle Medium (DMEM) or Minimum Essential Medium (MEM) supplemented with 10% fetal bovine serum (FBS), 2 mM L-glutamine, 100 U/mL penicillin, and 100 µg/mL streptomycin (Lonza, Basel, Switzerland) in a humidified atmosphere with 5% CO2 at 37 °C. For the experiment, carcinoma cell lines and normal human cell lines were seeded in 96-well microtiter plates at a density of 3000 cells per well and 5000 cells per well, respectively, depending on the doubling time of the specific cell line. The test substances were then added at fivefold, tenfold dilutions (0.01 to 100 µM), freshly prepared in the growth medium on the day of testing, and incubated for a further 72 h. After 72 h of incubation, the growth rate of the cells was determined using the MTT assay according to the manufacturer’s guidelines. […] The IC50 values were calculated from the dose–response curves using linear regression analysis. The experiment was performed in tetraplicates in two individual experiments.
(§2) Newly synthesized compounds were evaluated for their cytotoxic activity in vitro against four human cancer cell lines, including human breast adenocarcinoma (MCF-7), ductal pancreatic adenocarcinoma (CFPAC-1), colorectal carcinoma (HT-29), and hepatocellular carcinoma (HepG2), as well as on non-cancerous skin fibroblasts (HFF-1), to check for non-specific toxicity. Furthermore, 5-Fluorouracil (5-FU) was used as a reference drug. The results are expressed as 50% inhibitory concentration (IC50) values and are listed in Table 2, Table 3, Table 4 and Table 5.

[2] = test system: pancreatic ductal adenocarcinoma (CFPAC-1) cells; assay: Antiproliferative MTT assay, CFPAC-1; format: cell-based, human; details: for IC50: Homo sapiens, CFPAC-1, 72 h, 72 h incubation, MTT, mean ± SD; for SI (CFPAC-1): SI = [IC50 HFF]/[IC50 CFPAC-1]
Procedure: as §1, §2

[3] = Metabolic stability in mouse liver microsomes; format: in vitro ADME; details: mouse liver microsomes
Text: Mouse liver microsomes were obtained from Corning Life Sciences (Corning, NY, USA). DMSO, nicotinamide adenine dinucleotide phosphate (NADP), glucose-6-phosphate, glucose-6-phosphate dehydrogenase, magnesium chloride, propranolol, caffeine, diclofenac, and phosphate-buffered saline (PBS) were purchased from Sigma (St. Louis, MO, USA). Acetonitrile (ACN) and methanol (MeOH) were obtained from Merck (Darmstadt, Germany). Testosterone was purchased from Steraloids (Newport, RI, USA). Metabolic stability was assessed in mouse liver microsomes. Compounds (final concentration of 1 µM, 0.03% DMSO v/v) were incubated in duplicate in phosphate buffer (50 mM, pH 7.4) at 37 °C together with mouse liver microsomes in the absence and presence of the NADPH cofactor (0.5 mM nicotinamide adenine dinucleotide phosphate, 5 mM glucose-6-phosphate, 1.5 U/mL glucose-6-phosphate dehydrogenase, and 0.5 mM magnesium chloride). Incubation and sampling were performed on a Freedom EVO 200 (Tecan, Männedorf, CH, Switzerland) at […], 10, 20, 30, 45, and 60 min. The reaction was quenched using 3 volumes of a mixture of ACN/MeOH (2:1) containing internal standard (diclofenac), centrifuged, and the supernatants were analyzed using LC-MS/MS. The metabolic activity of the microsomes was verified via simultaneous analysis of several controls including testosterone, propranolol, and caffeine. The in vitro half-life (t1/2) was calculated using GraphPad Prism (v9.0 software) non-linear regression of % of parent compound remaining versus time. In vitro clearance, expressed as µL/min/mg, was estimated from the in vitro half-life (t1/2) and normalized for the protein amount in the incubation mixture, assuming 52.5 mg of protein per gram of liver and using constant values for mouse liver weight/body weight [87.5 g/kg] and mouse liver blood flow (LBF) [131 mL/min/kg].
(§3) All samples were quantified using tandem mass spectrometry coupled to liquid chromatography. Samples were analyzed on a Sciex API4000 Triple Quadrupole Mass Spectrometer (Sciex, Division of MDS Inc., Toronto, Canada) coupled to a Shimadzu Nexera X2 UHPLC frontend (Kyoto, Japan). Samples were injected onto a UHPLC column (HALO2 C18, 2.1 × 20 mm, 2 µm or Luna Omega 1.6 µm Polar C18 100A, 30 × 2.1 mm) and eluted with a gradient at 50 °C. The mobile phase was composed of acetonitrile/water mixture (9/1, with 0.1% formic acid) and 0.1% formic acid in deionized water. The flow rate was 0.7 mL/min under gradient conditions, leading to a total run time of 1.5–2 min. A positive ion mode with turbo spray, an ion source temperature of 550 °C, and a dwell time of 150 ms were utilized for mass spectrometric detection. Quantitation was performed using multiple reaction monitoring (MRM) at the specific transitions for each compound.

[4] = test system: P-glycoprotein (human MDR1); assay: MDCKII-MDR1 permeability assay; format: in vitro ADME, canine cells with over-expressed human MDR1 gene; details: dog, MDCK-MDR1; for efflux ratio at 60 min, 10 µM: <2 no efflux, >2 active efflux; for Papp at 60 min, 10 µM: permeability class
Procedure: MDCKII-hMDR1 cells were obtained from Solvo Biotechnology, Hungary. DMEM, fetal bovine serum, Glutamax-100, Antibiotic/Antimycotic, DMSO, Dulbecco’s phosphate-buffered saline, and MEM Non-essential amino acids were purchased from Sigma (St. Louis, MO, USA). Bi-directional permeability and P-glycoprotein substrate assessments were carried out in Madin-Darby canine epithelial cells with the over-expressed human MDR1 gene (MDCKII-MDR1), coding for P-glycoprotein. Experimental procedures, as well as cell culture conditions, were the same as previously described. Briefly, compounds (10 µM, 1% DMSO v/v) in duplicate were incubated at 37 °C for 60 min with cell monolayer on 24-well Millicell inserts (Millipore, Burlington, MA, USA) with and without the P-glycoprotein inhibitor Elacridar (2 µM, International Laboratory, San Francisco, CA, USA). The inhibition of P-glycoprotein was verified by amprenavir (Moravek Biochemicals Inc, Brea, CA, USA) and monolayer integrity using Lucifer yellow (Sigma, St. Louis, MO, USA). LC-MS/MS measured compound concentrations and Lucifer yellow was measured on an Infinite F500 (Tecan, Männedorf, CH, Switzerland) using excitation of 485 nm and emission of 530 nm.
as §3

[5] = test system: normal skin fibroblasts (HFF-1); assay: Cytotoxicity MTT assay, normal skin fibroblasts; format: cell-based, human; details: Homo sapiens, HFF-1, 72 h, 72 h incubation, mean ± SD
Procedure: as §1, §2

[6] = test system: hepatocellular carcinoma (HepG2) cells; assay: Antiproliferative MTT assay, HepG2; format: cell-based, human; details: for IC50: Homo sapiens, HepG2, 72 h, 72 h incubation, MTT, mean ± SD; for SI (HepG2): SI = [IC50 HFF]/[IC50 HepG2]
Procedure: as §1, §2

[7] = test system: breast adenocarcinoma (MCF7) cells; assay: Antiproliferative MTT assay, MCF-7; format: cell-based, human; details: for IC50: Homo sapiens, MCF7, 72 h incubation, MTT, mean ± SD; for SI (MCF-7): SI = [IC50 HFF]/[IC50 MCF-7]
Procedure: as §1, §2

IC50 [1] | IC50 [2] | Clearance Class. [3] | Papp A→B at 60 min, 10 µM ([4]; 10 µM, 60 min, 37 °C) | Papp B→A at 60 min, 10 µM ([4]; 10 µM, 60 min, 37 °C) | efflux ratio at 60 min, 10 µM [4] | Papp at 60 min, 10 µM [4] | IC50 [6] | IC50 [7] | Structure (SMILES) | SI (CFPAC-1) [2] | IC50 [5] | SI (HT-29) [1] | SI (HepG2) [6] | SI (MCF-7) [7]
24 ± 2.9 µM | 65 ± 5.4 µM | – | – | – | – | – | 45 ± 1.9 µM | 73 ± 2.9 µM | O[C@H](Cn1cc(Cn2cnc3c(Cl)ncnc32)nn1)c1ccc(F)cc1 [Compound (S)-37b, (S)-6-Chloro-9-((1-(2-hydroxy-2-(4-fluorophenyl)ethyl)-1H-1,2,3-triazol-4-yl)methyl)-9H-purine] | – | 70 ± 19.5 µM | 2.9 | 1.6 | –
47 ± 16.8 µM | 51 ± 11.7 µM | – | – | – | – | – | 28 ± 7.5 µM | 58 ± 1.9 µM | O[C@H](Cn1cc(Cn2cnc3c(Cl)ncnc32)nn1)c1ccc(Cl)cc1 [Compound (S)-38b] | – | 81 ± 1.8 µM | 1.7 | 2.9 | –
41 ± 5.6 µM | 49 ± 18.5 µM | – | – | – | – | – | 41 ± 12.4 µM | 45 ± 7.2 µM | O[C@H](Cn1cc(Cn2ccc3c(Cl)ncnc32)nn1)c1ccccc1 [Compound (S)-41b, (S)-4-Chloro-7-((1-(2-hydroxy-2-phenylethyl)-1H-1,2,3-triazol-4-yl)methyl)-7H-pyrrolo[2,3-d]pyrimidine] | 1.2 | 58 ± 3.1 µM | – | – | 1.3
33 ± 0.2 µM | 13 ± 2.7 µM | – | – | – | – | – | 49 ± 2 µM | 41 µM | O[C@H](Cn1cc(Cn2ccc3c(Cl)ncnc32)nn1)c1ccc(F)cc1 [Compound (S)-42b, (S)-4-Chloro-7-((1-(2-hydroxy-2-(4-fluorophenyl)ethyl)-1H-1,2,3-triazol-4-yl)methyl)-7H-pyrrolo[2,3-d]pyrimidine] | 5.6 | 73 ± 2.4 µM | – | – | 1.8
33 ± 7.8 µM | 31 ± 5.3 µM | – | – | – | – | – | 21 ± 0.8 µM | 33 ± 5.8 µM | O[C@H](Cn1cc(Cn2ccc3c(Cl)ncnc32)nn1)c1ccc(Cl)cc1 [Compound (S)-43b, (S)-4-Chloro-7-((1-(2-hydroxy-2-(4-chlorophenyl)ethyl)-1H-1,2,3-triazol-4-yl)methyl)-7H-pyrrolo[2,3-d]pyrimidine] | 1.3 | 41 ± 1.1 µM | – | – | 1.2
31 ± 2.2 µM | 43 ± 10.8 µM | – | – | – | – | – | 23 ± 2.3 µM | 26 ± 8.5 µM | O[C@H](Cn1cc(Cn2ccc3c(Cl)ncnc32)nn1)c1ccc(C(F)(F)F)cc1 [Compound (S)-45b, (S)-4-Chloro-7-((1-(2-hydroxy-2-(4-(trifluoromethyl)phenyl)ethyl)-1H-1,2,3-triazol-4-yl)methyl)-7H-pyrrolo[2,3-d]pyrimidin] | 1.0 | 43 ± 3.9 µM | – | – | 1.7

The next lines start with the molecule.

Structure (SMILES) | IC50 [1] | IC50 [2] | Clearance Class. [3] | Papp A→B at 60 min, 10 µM ([4]; 10 µM, 60 min, 37 °C) | Papp B→A at 60 min, 10 µM ([4]; 10 µM, 60 min, 37 °C) | efflux ratio at 60 min, 10 µM [4] | Papp at 60 min, 10 µM [4] | IC50 [6] | IC50 [7] | SI (CFPAC-1) [2] | IC50 [5] | SI (HT-29) [1] | SI (HepG2) [6] | SI (MCF-7) [7]
OCC(c1ccc(Br)cc1)n1cc(Cn2cnc3ccccc32)nn1 (centres unmarked) [Compound 34a, 1-((1-(2-Hydroxy-1-(4-bromophenyl)ethyl)-1H-1,2,3-triazol-4-yl)methyl)-1H-benzimidazole] | 39 ± 4.3 µM | 15 ± 8.9 µM | LOW (<30% low) | ≤ 2 ×10⁻⁶ cm/s | 65.7 ×10⁻⁶ cm/s | 32.8 | ≤ 2 ×10⁻⁶ cm/s | 35 ± 14.2 µM | 22 ± 5.1 µM | 2.8 | 42 ± 8.3 µM | – | – | –
OCC(c1ccc(Br)cc1)n1cc(Cn2cnc3c(Cl)ncnc32)nn1 (centres unmarked) [Compound 39a, 6-Chloro-9-((1-(2-hydroxy-1-(4-bromophenyl)ethyl)-1H-1,2,3-triazol-4-yl)methyl)-9H-purine] | 31 ± 2.6 µM | 46 ± 3.8 µM | – | – | 58 ×10⁻⁶ cm/s | 68.1 | ≤ 2 ×10⁻⁶ cm/s | 16 ± 5.6 µM | 14 ± 4.8 µM | – | 14 ± 4.7 µM | 0.5 | 0.9 | –
O[C@@H](Cn1cc(Cn2ccc3c(Cl)ncnc32)nn1)c1ccc(C(F)(F)F)cc1 [Compound (R)-45b, (R)-4-Chloro-7-((1-(2-hydroxy-2-(4-(trifluoromethyl)phenyl)ethyl)-1H-1,2,3-triazol-4-yl)methyl)-7H-pyrrolo[2,3-d]pyrimidin] | 45 ± 4 µM | 49 ± 8.7 µM | – | – | – | – | – | 38 ± 7.6 µM | 43 ± 4.6 µM | 0.4 | 21 ± 3.8 µM | – | – | 0.5
O[C@H](Cn1cc(Cn2cnc3c(Cl)ncnc32)nn1)c1ccccc1 [Compound (S)-36b, (S)-6-Chloro-9-((1-(2-hydroxy-2-phenylethyl)-1H-1,2,3-triazol-4-yl)methyl)-9H-purine] | 48 ± 4.8 µM | 32 ± 5.3 µM | – | – | – | – | – | 21 ± 0.8 µM | 33 ± 5.8 µM | – | > 100 µM | >2.1 | >4.8 | –
